Laboratory results from PubChem BioAssay AID328 (DTP/NCI, 2004).
Where “and” joins values, the source holds several entries; their conditions need not be identical. Equal entries are not always repeated. Inconclusive results and toxic doses are left out.

Test system: BDF1 mice, P388 leukemia ip, median survival T/C
Assay: NCI In Vivo Anticancer Drug Screen. Data for tumor model P388 Leukemia (intraperitoneal) in B6D2F1 (BDF1) mice
Settings: endpoint: median survival time, higher = longer survival
Method in brief: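 In tumour-bearing mice, survival after compound treatment is set against the vehicle group and given as a quotient.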

COC(=O)C[C@](O)(CCCC(C)(C)O)C(=O)O[C@@H]1C(OC)=C[C@]23CCCN2CCc2cc4c(cc2[C@H]13)OCO4
T/C (dose: 0.06 mg/kg/injection, schedule: Q01DX010 (ip), vehicle: saline): 154 % of control | T/C (dose: 0.13 mg/kg/injection, schedule: Q01DX010 (ip), vehicle: saline): 172 % of control | T/C (dose: 0.25 mg/kg/injection, schedule: Q01DX009 (ip), vehicle: acid diluted with saline): 180 % of control | T/C (dose: 0.25 mg/kg/injection, schedule: Q01DX009 (ip), vehicle: water): 233 % of control and 244 % of control | T/C (dose: 0.25 mg/kg/injection, schedule: Q01DX010 (ip), vehicle: saline): 181 % of control | T/C (dose: 0.25 mg/kg/injection, schedule: Q03HX016 (ip), vehicle: acid diluted with saline): 160 % of control | T/C (dose: 0.5 mg/kg/injection, schedule: Q01DX006 (iv), vehicle: acid diluted with saline): 115 % of control | T/C (dose: 0.5 mg/kg/injection, schedule: Q01DX009 (ip), vehicle: acid diluted with saline): 190 % of control | T/C (dose: 0.5 mg/kg/injection, schedule: Q01DX009 (ip), vehicle: saline): 240 % of control and 100 % of control | T/C (dose: 0.5 mg/kg/injection, schedule: Q01DX009 (ip), vehicle: water): 272 % of control and 300 % of control | T/C (dose: 0.5 mg/kg/injection, schedule: Q01DX009 (oral), vehicle: acid diluted with saline): 115 % of control | T/C (dose: 0.5 mg/kg/injection, schedule: Q01DX009 (oral), vehicle: saline): 155 % of control | T/C (dose: 0.5 mg/kg/injection, schedule: Q01DX009 (sc), vehicle: saline): 105 % of control | T/C (dose: 0.5 mg/kg/injection, schedule: Q01DX010 (ip), vehicle: saline): 245 % of control and 215 % of control | T/C (dose: 0.5 mg/kg/injection, schedule: Q03HX016 (ip), vehicle: acid diluted with saline): 180 % of control | T/C (dose: 1.0 mg/kg/injection, schedule: Q01DX006 (iv), vehicle: acid diluted with saline): 160 % of control | T/C (dose: 1.0 mg/kg/injection, schedule: Q01DX009 (ip), vehicle: acid diluted with saline): 225 % of control and 218 % of control | T/C (dose: 1.0 mg/kg/injection, schedule: Q01DX009 (ip), vehicle: saline): 245 % of control and 100 % of control | T/C (dose: 1.0 mg/kg/injection, schedule: Q01DX009 (ip), vehicle: water): 327 % of control and 338 % of control | T/C (dose: 1.0 mg/kg/injection, schedule: Q01DX009 (oral), vehicle: acid diluted with saline): 115 % of control | T/C (dose: 1.0 mg/kg/injection, schedule: Q01DX009 (oral), vehicle: saline): 240 % of control | T/C (dose: 1.0 mg/kg/injection, schedule: Q01DX009 (sc), vehicle: acid diluted with saline): 170 % of control | T/C (dose: 1.0 mg/kg/injection, schedule: Q01DX010 (ip), vehicle: saline): 120 % of control | T/C (dose: 1.0 mg/kg/injection, schedule: Q03HX008 (ip), vehicle: acid diluted with saline): 150 % of control | T/C (dose: 1.0 mg/kg/injection, schedule: Q03HX016 (ip), vehicle: acid diluted with saline): 100 % of control | T/C (dose: 2.0 mg/kg/injection, schedule: Q01DX001 (ip), vehicle: acid diluted with saline): 120 % of control | T/C (dose: 2.0 mg/kg/injection, schedule: Q01DX001 (iv), vehicle: acid diluted with saline): 110 % of control | T/C (dose: 2.0 mg/kg/injection, schedule: Q01DX001 (oral), vehicle: acid diluted with saline): 110 % of control | T/C (dose: 2.0 mg/kg/injection, schedule: Q01DX001 (sc), vehicle: acid diluted with saline): 110 % of control | T/C (dose: 2.0 mg/kg/injection, schedule: Q01DX006 (iv), vehicle: acid diluted with saline): 200 % of control | T/C (dose: 2.0 mg/kg/injection, schedule: Q01DX009 (ip), vehicle: acid diluted with saline): 240 % of control and 254 % of control | T/C (dose: 2.0 mg/kg/injection, schedule: Q01DX009 (ip), vehicle: water): 88 % of control | T/C (dose: 2.0 mg/kg/injection, schedule: Q01DX009 (sc), vehicle: acid diluted with saline): 235 % of control | T/C (dose: 2.0 mg/kg/injection, schedule: Q01DX009 (sc), vehicle: saline): 205 % of control | T/C (dose: 2.0 mg/kg/injection, schedule: Q04DX003 (ip), vehicle: acid diluted with saline): 155 % of control and 168 % of control and 170 % of control | T/C (dose: 2.0 mg/kg/injection, schedule: Q04DX003 (ip), vehicle: saline): 173 % of control | T/C (dose: 3.33 mg/kg/injection, schedule: Q04DX003 (ip), vehicle: acid diluted with saline): 112 % of control | T/C (dose: 4.0 mg/kg/injection, schedule: Q01DX001 (ip), vehicle: acid diluted with saline): 115 % of control | T/C (dose: 4.0 mg/kg/injection, schedule: Q01DX001 (iv), vehicle: acid diluted with saline): 110 % of control | T/C (dose: 4.0 mg/kg/injection, schedule: Q01DX001 (oral), vehicle: acid diluted with saline): 110 % of control | T/C (dose: 4.0 mg/kg/injection, schedule: Q01DX001 (sc), vehicle: acid diluted with saline): 120 % of control | T/C (dose: 4.0 mg/kg/injection, schedule: Q01DX006 (iv), vehicle: acid diluted with saline): 120 % of control | T/C (dose: 4.0 mg/kg/injection, schedule: Q01DX009 (ip), vehicle: acid diluted with saline): 190 % of control | T/C (dose: 4.0 mg/kg/injection, schedule: Q01DX009 (ip), vehicle: saline): 100 % of control | T/C (dose: 4.0 mg/kg/injection, schedule: Q01DX009 (sc), vehicle: saline): 115 % of control | T/C (dose: 4.0 mg/kg/injection, schedule: Q04DX003 (ip), vehicle: acid diluted with saline): 110 % of control | T/C (dose: 8.0 mg/kg/injection, schedule: Q01DX009 (ip), vehicle: saline): 104 % of control | T/C (dose: 62.5 micrograms/kg/injection, schedule: Q01DX009 (ip), vehicle: saline): 154 % of control | T/C (dose: 125.0 micrograms/kg/injection, schedule: Q01DX009 (ip), vehicle: saline): 154 % of control | T/C (dose: 125.0 micrograms/kg/injection, schedule: Q03HX024 (ip), vehicle: acid diluted with saline): 170 % of control | T/C (dose: 250.0 micrograms/kg/injection, schedule: Q01DX009 (ip), vehicle: saline): 163 % of control | T/C (dose: 250.0 micrograms/kg/injection, schedule: Q03HX024 (ip), vehicle: acid diluted with saline): 190 % of control | T/C (dose: 500.0 micrograms/kg/injection, schedule: Q01DX009 (ip), vehicle: saline): 190 % of control | T/C (dose: 500.0 micrograms/kg/injection, schedule: Q03HX024 (ip), vehicle: acid diluted with saline): 215 % of control | T/C (dose: 1000.0 micrograms/kg/injection, schedule: Q01DX009 (ip), vehicle: saline): 213 % of control
